In patent US7271181B2, “Inhibitors of p38” (Vertex Pharmaceuticals Incorporated, priority 2001, dated 2007):

The molecules below were run against T1, activated p38 (Homo sapiens, UniProt Q16539) (assay: p38 inhibition assay: inhibition of ATPase activity). Conditions: ATPase activity of activated p38 (60 nM), various ATP concentrations.
T1 construct: amplify the coding region of CSBP2 cDNA using a HeLa cell library; made in house; host or cells: Trichoplusia ni (Tn-368) High-Five insect cells, baculovirus (virus generated in Sf9)
Assay type: biochemical
Description: B. Inhibition of ATPase Activity
This assay is carried out in the presence of 10 mM MgCl2, 25 mM β-glycerophosphate, 10% glycerol and 100 mM HEPES buffer at pH 7.6. For a typical Ki determination, the Km for ATP in the ATPase activity of activated p38 reaction is determined in the absence of inhibitor and in the presence of two concentrations of inhibitor. A stock solution is prepared containing all of the above components and activated p38 (60 nM). The stock solution is aliquotted into vials. A fixed volume of DMSO or inhibitor in DMSO (final concentration of DMSO in reaction was 2.5%) is introduced to each vial, mixed and incubated for 15 minutes at room temperature. The reaction is initiated by adding various concentrations of ATP and then incubated at 30° C. After 30 minutes, the reactions are quenched with 50 μl of EDTA (0.1 M, final concentration), pH 8.0. The product of p38 ATPase activity, ADP, is quantified by HPLC analysis.
Separation of ADP from ATP is achieved on a reversed phase column (Supelcosil, LC-18, 3 μm, part no. 5-8985) using a binary solvent gradient of following composition: Solvent A—0.1 M phosphate buffer containing 8 mM tetrabutylammonium hydrogen sulfate (Sigma Chemical Co., catalogue no. T-7158), Solvent B—Solvent A with 30% methanol.
Ki is determined from the rate data as a function of inhibitor and ATP concentrations.

T1 sequence (Q16539 whole entry): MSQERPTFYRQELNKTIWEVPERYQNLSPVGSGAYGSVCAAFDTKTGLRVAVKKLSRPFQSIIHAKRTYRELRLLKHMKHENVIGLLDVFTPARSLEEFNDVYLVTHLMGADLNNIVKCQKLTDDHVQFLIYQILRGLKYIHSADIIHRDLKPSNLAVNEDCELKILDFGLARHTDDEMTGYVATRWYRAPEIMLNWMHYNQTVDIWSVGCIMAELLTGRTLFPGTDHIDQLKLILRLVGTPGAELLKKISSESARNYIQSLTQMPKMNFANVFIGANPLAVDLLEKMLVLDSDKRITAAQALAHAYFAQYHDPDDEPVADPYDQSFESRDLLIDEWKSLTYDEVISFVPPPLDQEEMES

Compound	Ki [µM]
O=C(c1ccccc1)c1ccc(N(C(=O)CCc2ccccc2)c2c(F)cccc2F)nc1 [Compound 625]	1 to 10
O=C(c1ccccc1)c1ccc(N(C(=O)Cc2ccc(F)cc2)c2c(F)cccc2F)nc1 [Compound 626]	1 to 10
O=C(c1ccccc1)c1ccc(N(C(=O)OCc2ccccc2)c2c(F)cccc2F)nc1 [Compound 627]	1 to 10
O=C(c1ccccc1)c1ccc(N(C(=O)Oc2ccc(F)cc2)c2c(F)cccc2F)nc1 [Compound 628]	1 to 10
O=C(c1ccc(N(C(=O)CCc2ccccc2)c2c(F)cccc2F)nc1)c1ccccc1Cl [Compound 629]	1 to 10
O=C(c1ccc(N(C(=O)Cc2ccc(F)cc2)c2c(F)cccc2F)nc1)c1ccccc1Cl [Compound 630]	1 to 10
O=C(c1ccc(N(C(=O)OCc2ccccc2)c2c(F)cccc2F)nc1)c1ccccc1Cl [Compound 631]	1 to 10
O=C(c1ccc(N(C(=O)Oc2ccc(F)cc2)c2c(F)cccc2F)nc1)c1ccccc1Cl [Compound 632]	1 to 10
O=C(c1ccc(N(C(=O)CCc2ccccc2)c2c(F)cccc2F)nc1)c1sccc1-n1cccc1 [Compound 633]	1 to 10
O=C(c1ccc(N(C(=O)Cc2ccc(F)cc2)c2c(F)cccc2F)nc1)c1sccc1-n1cccc1 [Compound 634]	1 to 10
O=C(c1ccc(N(C(=O)OCc2ccccc2)c2c(F)cccc2F)nc1)c1sccc1-n1cccc1 [Compound 635]	1 to 10

What follows are molecules tested against T1, activated p38 (assay: p38 inhibition assay: inhibition of phosphorylation of EGF receptor peptide). Conditions: activated p38 5 nM, EGF receptor peptide 200 μM, ATP 100 μM, 30° C, 30 minutes.
Assay type: biochemical
Description: A. Inhibition of Phosphorylation of EGF Receptor Peptide
This assay was carried out in the presence of 10 mM MgCl2, 25 mM β-glycerophosphate, 10% glycerol and 100 mM HEPES buffer at pH 7.6. For a typical IC50 determination, a stock solution was prepared containing all of the above components and activated p38 (5 nM). The stock solution was aliquotted into vials. A fixed volume of DMSO or inhibitor in DMSO (final concentration of DMSO in reaction was 5%) was introduced to each vial, mixed and incubated for 15 minutes at room temperature. EGF receptor peptide, […], a phosphoryl acceptor in p38-catalyzed kinase reaction (1), was added to each vial to a final concentration of 200 μM. The kinase reaction was initiated with ATP (100 μM) and the vials were incubated at 30° C. After 30 minutes, the reactions were quenched with equal volume of 10% trifluoroacetic acid (TFA).
The phosphorylated peptide was quantified by HPLC analysis. Separation of phosphorylated peptide from the unphosphorylated peptide was achieved on a reverse phase column (Deltapak, 5 μm, C18 100D, Part no. 011795) with a binary gradient of water and acteonitrile, each containing 0.1% TFA. IC50 (concentration of inhibitor yielding 50% inhibition) was determined by plotting the percent (%) activity remaining against inhibitor concentration.

Compound	IC50 [µM]
O=C(c1ccccc1)c1ccc(Nc2c(F)cccc2F)nc1 [Compound 101, (6-(2,6-Difluorophenylamino)-pyridin-3-yl]-phenylmethanone]	≤ 1
O=C(c1ccc(Nc2c(F)cccc2F)nc1)c1cccc(Cl)c1 [Compound 102]	≤ 1
N#Cc1ccc(C(=O)c2ccc(Nc3c(F)cccc3F)nc2)cc1 [Compound 103]	1 to 10
Cc1cccc(C(=O)c2ccc(Nc3c(F)cccc3F)nc2)c1 [Compound 104]	≤ 1
CC(C)(C)c1ccc(C(=O)c2ccc(Nc3c(F)cccc3F)nc2)cc1 [Compound 105]	≤ 1
O=C(c1ccc(Br)cc1)c1ccc(Nc2c(F)cccc2F)nc1 [Compound 106]	≤ 1
O=C(c1ccc(Nc2c(F)cccc2F)nc1)c1ccccc1Cl [Compound 107]	≤ 1
O=C(c1ccc(-c2ccccc2)cc1)c1ccc(Nc2c(F)cccc2F)nc1 [Compound 108]	≤ 1
O=C(c1ccc(Nc2c(F)cccc2F)nc1)c1ccc(Cl)c(Cl)c1 [Compound 109]	≥ 10
O=C(c1ccc(Nc2c(F)cccc2F)nc1)c1ccc2ccccc2c1 [Compound 110]	≤ 1
COc1ccc(C(=O)c2ccc(Nc3c(F)cccc3F)nc2)cc1OC [Compound 111]	1 to 10
O=C(c1ccc(Cl)cc1)c1ccc(Nc2c(F)cccc2F)nc1 [Compound 112]	≤ 1
O=C(c1ccc(Nc2c(F)cccc2F)nc1)c1cc(Cl)ccc1Cl [Compound 113]	≤ 1
Cc1cc(C(=O)c2ccc(Nc3c(F)cccc3F)nc2)ccc1Cl [Compound 114]	≤ 1
COc1cc(OC)cc(C(=O)c2ccc(Nc3c(F)cccc3F)nc2)c1 [Compound 115]	≤ 1
O=C(c1ccc(Nc2c(F)cccc2F)nc1)c1sccc1-n1cccc1 [Compound 116]	≤ 1
Cc1occc1C(=O)c1ccc(Nc2c(F)cccc2F)nc1 [Compound 117]	≤ 1
COc1cc(C(=O)c2ccc(Nc3c(F)cccc3F)nc2)cc(OC)c1OC [Compound 118]	1 to 10
CC(C)CC(=O)c1ccc(Nc2c(F)cccc2F)nc1 [Compound 119]	≤ 1
O=C(c1ccc(Nc2c(F)cccc2F)nc1)c1cc2ccccc2s1 [Compound 120]	1 to 10
OC(c1ccccc1)c1ccc(Nc2c(F)cccc2F)nc1 (centres unmarked) [Compound 201]	≤ 1
NC(=O)C(c1cc(C(F)(F)F)cc(C(F)(F)F)c1)c1ccc(SCc2ccco2)nn1 (centres unmarked) [Compound 301]	1 to 10
CCCCc1ccc(Nc2c(F)cccc2F)nc1 [Compound 401]	≥ 10
NC(=O)N(c1ccc(C#CCOc2c(Cl)cccc2Cl)cn1)c1c(F)cccc1F [Compound 402]	≥ 10
[O-][S+](c1ccccc1)c1ccc(Nc2c(F)cccc2F)nc1 (centres unmarked) [Compound 501]	≥ 10
O=S(=O)(c1ccccc1)c1ccc(Nc2c(F)cccc2F)nc1 [Compound 502]	≥ 10

Compound	IC50 [µM]
Fc1cccc(F)c1Nc1ccc(Sc2ccccc2)cn1 [Compound 503]	≤ 1
Cc1cccc(C(=O)c2ccc(N(C(=O)c3ccccc3)c3c(F)cccc3F)nc2)c1 [Compound 601]	1 to 10
COCC(=O)N(c1ccc(C(=O)c2cccc(C)c2)cn1)c1c(F)cccc1F [Compound 602]	1 to 10
Cc1cccc(C(=O)c2ccc(N(C(=O)c3snnc3C)c3c(F)cccc3F)nc2)c1 [Compound 603]	1 to 10
Cc1cccc(C(=O)c2ccc(N(C(=O)C(C)(C)C)c3c(F)cccc3F)nc2)c1 [Compound 604]	≤ 1
CC(=O)N(c1ccc(C(=O)c2cccc(C)c2)cn1)c1c(F)cccc1F [Compound 605]	≤ 1
Cc1cccc(C(=O)c2ccc(N(C(=O)c3ccc(Br)cc3)c3c(F)cccc3F)nc2)c1 [Compound 606]	≥ 10
Cc1cccc(C(=O)c2ccc(N(C(=O)C3CCCCC3)c3c(F)cccc3F)nc2)c1 [Compound 607]	≤ 1
COC(=O)CCC(=O)N(c1ccc(C(=O)c2cccc(C)c2)cn1)c1c(F)cccc1F [Compound 608]	1 to 10
Cc1cccc(C(=O)c2ccc(N(C(=O)c3sc4ccccc4c3Cl)c3c(F)cccc3F)nc2)c1 [Compound 609]	1 to 10
Cc1cccc(C(=O)c2ccc(N(C(=O)c3ccc(F)c(C(F)(F)F)c3)c3c(F)cccc3F)nc2)c1 [Compound 610]	≤ 1
Cc1cccc(C(=O)c2ccc(N(C(=O)c3cccc(C(F)(F)F)c3)c3c(F)cccc3F)nc2)c1 [Compound 611]	≤ 1
Cc1cccc(C(=O)c2ccc(N(C(=O)C(C)Oc3ccccc3)c3c(F)cccc3F)nc2)c1 (centres unmarked) [Compound 612]	≥ 10
CCOC(=O)C(=O)N(c1ccc(C(=O)c2cccc(C)c2)cn1)c1c(F)cccc1F [Compound 613]	≤ 1
Cc1cccc(C(=O)c2ccc(N(C(=O)CC(C)C)c3c(F)cccc3F)nc2)c1 [Compound 614]	≤ 1
Cc1cc(C(=O)c2ccc(N(C(=O)c3ccc(Br)cc3)c3c(F)cccc3F)nc2)ccc1Cl [Compound 615]	≥ 10
COC(=O)CCC(=O)N(c1ccc(C(=O)c2ccc(Cl)c(C)c2)cn1)c1c(F)cccc1F [Compound 616]	≥ 10
Cc1cc(C(=O)c2ccc(N(C(=O)C(C)Oc3ccccc3)c3c(F)cccc3F)nc2)ccc1Cl (centres unmarked) [Compound 617]	1 to 10
CCOC(=O)C(=O)N(c1ccc(C(=O)c2ccc(Cl)c(C)c2)cn1)c1c(F)cccc1F [Compound 618]	1 to 10
CCOC(=O)C(=O)N(c1ccc(C(=O)c2cc(OC)cc(OC)c2)cn1)c1c(F)cccc1F [Compound 619]	≤ 1
O=C(c1ccc(N(C(=O)c2ccc(Br)cc2)c2c(F)cccc2F)nc1)c1sccc1-n1cccc1 [Compound 620]	≤ 1
COC(=O)CCC(=O)N(c1ccc(C(=O)c2sccc2-n2cccc2)cn1)c1c(F)cccc1F [Compound 621]	1 to 10
O=C(c1ccc(N(C(=O)c2sc3ccccc3c2Cl)c2c(F)cccc2F)nc1)c1sccc1-n1cccc1 [Compound 622]	≤ 1
O=C(c1ccc(N(C(=O)c2cccc(C(F)(F)F)c2)c2c(F)cccc2F)nc1)c1sccc1-n1cccc1 [Compound 623]	≤ 1
CC(Oc1ccccc1)C(=O)N(c1ccc(C(=O)c2sccc2-n2cccc2)cn1)c1c(F)cccc1F (centres unmarked) [Compound 624]	≤ 1
